Experimental data: PMC11329504, “Identification of novel small molecule-based strategies of COL7A1 upregulation and readthrough activity for the treatment of recessive dystrophic epidermolysis bullosa” (Scientific Reports, 2024)

Legend:
A2A = biological target: T1, A2A (Homo sapiens, UniProt P29274); experiment: Selectivity panel (Eurofins): A2A adenosine receptor; assay type: binding; settings: Table 5, read-out: Selectivity % inhibition, A2A
T1 construct: Eurofins Pharma Discovery Services

BZD = experiment: Selectivity panel (Eurofins): benzodiazepine receptor BZD; assay type: binding; settings: Table 5
SAPK2α = biological target: T2, SAPK2α (Homo sapiens, UniProt Q16539); experiment: Selectivity panel (Eurofins): p38/SAPK2α kinase; assay type: biochemical; settings: Table 5, read-out: Selectivity % inhibition, SAPK2α
T2 construct: Eurofins Pharma Discovery Services

[1] = system: total (truncated + full length) C7 in RDEB_L1 cells; experiment: AlphaLISA quantification of total C7 in RDEB_L1 cells; assay type: cell-based, human; settings: Table 5 SAR; at 50 μM, 20 ng/mL TGFß2
Method: The AlphaLISA assay was developed in-house by using the biotin-conjugated rabbit polyclonal antibody anti-C7 (LSBio LS-298147) and conjugating the acceptor beads (PerkinElmer 6772001) to a monoclonal anti-Collagen type VII antibody produced in mouse, clone LH7.2 (Thermo MA5-13,432). Formulation of the mAb clone LH7.2 was exchanged to PBS and concentrated 5 × by using Amicon® Ultra-0.5 centrifugal filters up to 1 mg/ml. The conjugation procedure was carried out according to the protocol provided by PerkinElmer.
For compound treatment in RDEB patient-derived transformed keratinocytes, 5,000 cells were plated in 20 µL of supplemented KGM media containing 20 ng/mL TGFβ2 (SIGMA GF113) without GA-1000 in 384-well cell culture plates (Greiner 781098). The day after, 5 µL of test compounds prepared 5 × in supplemented KGM without GA-1000 were added over cells and incubated for 48 h at 37 °C and 5% CO2. For compound treatment in HEK293^R578X, 10,000 cells were plated in 20 μL of DMEM (High Glucose, 2 mM L-Glutamine, sodium pyruvate, and FBS 10%) in 384-well cell culture plates (Greiner 781,098,). The day after, 5 μL of test compounds prepared 5 × in DMEM complete medium were added over cells and incubated for 48 h at 37 °C and 5% CO2.
After the treatment process, 2.5 µL of RIPA buffer 10 x (Abcam ab156034) were added over the […] of cells for 20 min at room temperature to obtain a complete cell lysis. Then, 2 μL of sample (i.e., cell lysate with supernatant) were transferred to the AlphaLISA plate (PerkinElmer 6,059,340) containing […] of antibodies mixture ([…] of acceptor Beads-Ab and […] of biotin-rAb) prepared in AlphaLISA buffer 1 x (PerkinElmer AL00F). The reaction was incubated for 90 min at room temperature. Finally, 10 μL of […] of donor beads (PerkinElmer 6760002,) were added to the reaction under subdued light, mixed gently, and incubated for 3 h at room temperature. AlphaLISA signal was detected with an Envision microplate reader (Perkin Elmer) using the following setting: Filter: AlphaScreen, Excitation time: 180 ms, Integration time: 300 ms.
Statistical analyses were performed using GraphPad Prism v. 7.04 (La Jolla, California). Results are shown as mean ± SD of experimental replicates. Dose–response curves to assess compound treatment effect were plotted in a four-parameter logistic model. Relative EC50, representing the total drug concentration producing a 50% effect, was calculated in the four-parameter logistic equation. Comparisons of collagen protein and mRNA expression in different experimental conditions were made using ANOVA, followed by a post hoc test. statistical significance was considered with p values < 0.05.

T1 sequence (P29274 whole entry): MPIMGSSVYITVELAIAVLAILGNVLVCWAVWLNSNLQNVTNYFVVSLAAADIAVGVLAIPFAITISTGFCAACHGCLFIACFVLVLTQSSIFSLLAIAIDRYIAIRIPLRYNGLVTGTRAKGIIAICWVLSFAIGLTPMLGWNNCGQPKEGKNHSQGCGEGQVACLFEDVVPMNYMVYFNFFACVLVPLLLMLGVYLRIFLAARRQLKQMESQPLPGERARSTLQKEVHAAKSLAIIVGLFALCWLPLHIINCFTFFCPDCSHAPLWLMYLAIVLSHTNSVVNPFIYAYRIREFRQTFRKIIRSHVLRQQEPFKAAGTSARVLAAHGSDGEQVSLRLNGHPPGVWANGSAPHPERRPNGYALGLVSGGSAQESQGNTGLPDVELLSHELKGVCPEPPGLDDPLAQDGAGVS
T2 sequence (Q16539 whole entry): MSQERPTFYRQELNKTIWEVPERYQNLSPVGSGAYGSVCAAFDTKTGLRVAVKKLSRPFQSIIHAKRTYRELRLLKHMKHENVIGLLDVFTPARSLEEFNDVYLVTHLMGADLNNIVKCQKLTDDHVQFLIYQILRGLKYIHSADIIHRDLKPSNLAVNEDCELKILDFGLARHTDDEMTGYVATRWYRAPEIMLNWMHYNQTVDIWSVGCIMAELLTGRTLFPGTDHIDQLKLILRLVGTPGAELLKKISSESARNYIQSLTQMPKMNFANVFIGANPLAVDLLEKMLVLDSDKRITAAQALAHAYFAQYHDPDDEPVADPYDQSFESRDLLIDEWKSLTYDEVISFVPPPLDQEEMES

inhibition at 3 µM (A2A; at 3 μM): 104%
inhibition at 10 µM (A2A; at 10 μM): 103%
inhibition at 30 µM (A2A; at 30 μM): 104%
Selectivity % inhibition, BZD (BZD; at 3 μM): 0%
Selectivity % inhibition, BZD (BZD; at 10 μM): 0%
Selectivity % inhibition, BZD (BZD; at 30 μM): 9%
inhibition at 3 µM (SAPK2α; at 3 μM): 36%
inhibition at 10 µM (SAPK2α; at 10 μM): 162%
inhibition at 30 µM (SAPK2α; at 30 μM): 88%
SMILES: Nc1cnc(-c2ccncc2)c(-c2cccc(F)c2)n1 [Compound 10]
Increase in C7 levels Emax, % vs baseline [1]: 2.1 ± 16 at 50 % vs baseline
